Legend:
[1] = target: T1, 5-hydroxytryptamine receptor 1A (Rattus norvegicus, UniProt P19327); experiment: Displacement of [3H]8-OH-DPAT from 5HT1A receptor in rat brain cortex; format: tissue-based
T1 sequence (P19327 whole entry): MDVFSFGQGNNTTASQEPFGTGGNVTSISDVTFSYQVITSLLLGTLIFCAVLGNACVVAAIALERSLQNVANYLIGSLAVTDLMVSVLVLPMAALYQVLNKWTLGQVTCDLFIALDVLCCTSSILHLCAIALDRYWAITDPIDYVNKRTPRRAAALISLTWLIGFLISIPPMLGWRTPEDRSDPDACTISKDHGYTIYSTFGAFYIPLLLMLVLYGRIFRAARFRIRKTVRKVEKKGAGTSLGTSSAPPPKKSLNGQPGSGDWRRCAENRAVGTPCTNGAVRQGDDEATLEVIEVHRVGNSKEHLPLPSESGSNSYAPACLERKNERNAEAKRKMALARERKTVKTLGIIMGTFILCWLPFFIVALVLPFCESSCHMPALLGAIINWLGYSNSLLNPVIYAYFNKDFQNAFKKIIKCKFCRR

Histamine H1 receptor = Histamine H1 receptor (Cavia porcellus, UniProt P31389); experiment: Displacement of [3H]mepyramine from histamine H1 receptor in guinea pig cerebellum
[2] = target: T2, 5-hydroxytryptamine receptor 2C (Rattus norvegicus, UniProt P08909); experiment: Displacement of [3H]mesulergine from 5HT2C receptor in rat brain cortex; format: tissue-based
T2 sequence (P08909 whole entry): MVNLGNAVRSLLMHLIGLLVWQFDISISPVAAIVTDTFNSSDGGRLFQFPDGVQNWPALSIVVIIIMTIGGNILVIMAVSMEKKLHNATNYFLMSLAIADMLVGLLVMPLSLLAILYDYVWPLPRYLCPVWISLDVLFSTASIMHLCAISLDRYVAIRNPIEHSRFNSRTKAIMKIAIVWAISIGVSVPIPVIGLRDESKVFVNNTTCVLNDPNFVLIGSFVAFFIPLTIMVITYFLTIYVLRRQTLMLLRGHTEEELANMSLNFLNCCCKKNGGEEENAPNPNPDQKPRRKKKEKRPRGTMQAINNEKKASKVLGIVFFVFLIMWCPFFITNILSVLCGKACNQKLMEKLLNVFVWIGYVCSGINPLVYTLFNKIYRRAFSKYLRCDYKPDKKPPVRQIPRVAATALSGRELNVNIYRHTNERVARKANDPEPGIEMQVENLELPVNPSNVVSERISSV

[3] = target: 5-hydroxytryptamine receptor 2A (Rattus norvegicus, UniProt P14842); experiment: Displacement of [3H]ketanserin from 5HT2A receptor in rat brain cortex; format: tissue-based
[4] = target: Voltage-gated inwardly rectifying potassium channel KCNH2 (Homo sapiens, UniProt Q12809); experiment: Inhibition of human ERG
[5] = target: T3, Adrenergic receptor alpha-2 (Rattus norvegicus, UniProt P22086+P19328+P22909); experiment: Displacement of [3H]rauwolscine from adrenergic alpha2 receptor in rat brain cortex; format: tissue-based
T3 sequence (P22086 whole entry): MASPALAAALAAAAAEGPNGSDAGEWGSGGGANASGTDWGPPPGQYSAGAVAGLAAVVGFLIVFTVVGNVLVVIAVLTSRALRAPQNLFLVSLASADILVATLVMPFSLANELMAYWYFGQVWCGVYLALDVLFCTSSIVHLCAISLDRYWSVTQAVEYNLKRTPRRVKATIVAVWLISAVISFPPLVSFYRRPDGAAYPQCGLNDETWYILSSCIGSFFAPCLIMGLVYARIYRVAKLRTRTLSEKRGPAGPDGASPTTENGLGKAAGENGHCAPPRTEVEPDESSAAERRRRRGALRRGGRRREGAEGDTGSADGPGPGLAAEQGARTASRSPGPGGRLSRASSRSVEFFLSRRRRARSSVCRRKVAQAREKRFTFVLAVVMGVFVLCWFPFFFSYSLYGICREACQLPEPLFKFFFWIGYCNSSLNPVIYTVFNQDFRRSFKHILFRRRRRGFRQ
T3 sequence (P19328 whole entry): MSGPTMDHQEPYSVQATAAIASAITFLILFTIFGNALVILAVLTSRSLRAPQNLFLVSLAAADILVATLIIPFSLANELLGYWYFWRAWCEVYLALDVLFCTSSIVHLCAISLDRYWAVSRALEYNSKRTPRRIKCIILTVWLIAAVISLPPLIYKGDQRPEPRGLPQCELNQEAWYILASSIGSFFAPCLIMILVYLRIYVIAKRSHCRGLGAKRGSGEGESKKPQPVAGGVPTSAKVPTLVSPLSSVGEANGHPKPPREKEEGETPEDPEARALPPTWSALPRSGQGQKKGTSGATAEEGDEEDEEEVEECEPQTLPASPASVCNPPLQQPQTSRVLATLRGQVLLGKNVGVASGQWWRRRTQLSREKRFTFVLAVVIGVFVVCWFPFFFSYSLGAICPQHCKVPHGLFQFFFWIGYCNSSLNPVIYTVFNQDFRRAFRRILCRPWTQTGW
T3 sequence (P22909 whole entry): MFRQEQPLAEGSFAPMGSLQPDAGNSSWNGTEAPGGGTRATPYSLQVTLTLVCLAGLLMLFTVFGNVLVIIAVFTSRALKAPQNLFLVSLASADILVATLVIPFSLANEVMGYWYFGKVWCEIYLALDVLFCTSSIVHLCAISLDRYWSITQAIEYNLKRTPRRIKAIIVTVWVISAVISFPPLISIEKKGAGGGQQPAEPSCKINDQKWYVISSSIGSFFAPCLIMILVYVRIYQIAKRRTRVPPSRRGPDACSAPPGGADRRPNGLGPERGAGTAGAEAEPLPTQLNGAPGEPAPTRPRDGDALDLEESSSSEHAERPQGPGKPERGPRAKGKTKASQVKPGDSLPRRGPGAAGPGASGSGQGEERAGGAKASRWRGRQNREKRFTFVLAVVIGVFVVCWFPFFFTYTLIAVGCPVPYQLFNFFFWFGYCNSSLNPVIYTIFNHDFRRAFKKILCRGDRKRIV

D(2) dopamine receptor = D(2) dopamine receptor (Rattus norvegicus, UniProt P61169); experiment: Displacement of [3H]spiperone from dopamine D2 receptor in rat striatum
Sequence of D(2) dopamine receptor (P61169 whole entry): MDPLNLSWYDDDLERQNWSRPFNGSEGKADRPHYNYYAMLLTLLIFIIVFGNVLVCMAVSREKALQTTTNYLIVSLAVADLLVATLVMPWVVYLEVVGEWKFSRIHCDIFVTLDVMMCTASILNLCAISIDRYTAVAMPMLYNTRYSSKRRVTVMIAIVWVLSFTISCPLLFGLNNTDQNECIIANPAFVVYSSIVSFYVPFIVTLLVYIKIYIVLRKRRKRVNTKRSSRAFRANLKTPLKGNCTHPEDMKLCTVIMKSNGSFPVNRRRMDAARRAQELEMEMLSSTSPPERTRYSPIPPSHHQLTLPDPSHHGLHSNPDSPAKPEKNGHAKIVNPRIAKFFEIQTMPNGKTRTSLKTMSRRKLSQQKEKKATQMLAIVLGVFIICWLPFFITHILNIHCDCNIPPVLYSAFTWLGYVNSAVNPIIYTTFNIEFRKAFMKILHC

Sequence of 5-hydroxytryptamine receptor 2A (P14842 whole entry): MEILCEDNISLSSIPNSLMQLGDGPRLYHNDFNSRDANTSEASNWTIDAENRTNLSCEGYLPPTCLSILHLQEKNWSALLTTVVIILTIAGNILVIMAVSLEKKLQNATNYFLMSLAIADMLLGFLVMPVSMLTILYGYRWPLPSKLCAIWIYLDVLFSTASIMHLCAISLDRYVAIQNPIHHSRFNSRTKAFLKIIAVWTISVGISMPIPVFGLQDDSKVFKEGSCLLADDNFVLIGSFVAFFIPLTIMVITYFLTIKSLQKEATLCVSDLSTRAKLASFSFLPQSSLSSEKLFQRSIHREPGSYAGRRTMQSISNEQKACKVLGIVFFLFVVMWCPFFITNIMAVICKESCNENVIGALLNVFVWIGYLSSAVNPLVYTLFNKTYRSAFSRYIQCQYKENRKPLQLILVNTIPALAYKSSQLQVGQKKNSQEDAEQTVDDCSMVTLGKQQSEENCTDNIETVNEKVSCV
Sequence of Histamine H1 receptor (P31389 whole entry): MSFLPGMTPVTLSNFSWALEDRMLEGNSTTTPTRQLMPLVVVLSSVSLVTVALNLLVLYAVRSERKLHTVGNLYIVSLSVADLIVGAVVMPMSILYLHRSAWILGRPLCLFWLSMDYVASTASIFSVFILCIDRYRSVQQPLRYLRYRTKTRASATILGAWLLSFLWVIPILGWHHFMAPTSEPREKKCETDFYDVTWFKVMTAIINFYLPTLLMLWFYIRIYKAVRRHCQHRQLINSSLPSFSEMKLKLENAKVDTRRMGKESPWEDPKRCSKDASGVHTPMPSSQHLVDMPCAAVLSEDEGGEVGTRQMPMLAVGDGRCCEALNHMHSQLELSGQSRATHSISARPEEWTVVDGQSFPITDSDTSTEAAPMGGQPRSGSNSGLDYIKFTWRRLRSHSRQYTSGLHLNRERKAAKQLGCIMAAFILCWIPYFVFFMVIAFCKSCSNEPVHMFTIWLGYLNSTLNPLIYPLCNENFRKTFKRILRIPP
Sequence of Voltage-gated inwardly rectifying potassium channel KCNH2 (Q12809 whole entry): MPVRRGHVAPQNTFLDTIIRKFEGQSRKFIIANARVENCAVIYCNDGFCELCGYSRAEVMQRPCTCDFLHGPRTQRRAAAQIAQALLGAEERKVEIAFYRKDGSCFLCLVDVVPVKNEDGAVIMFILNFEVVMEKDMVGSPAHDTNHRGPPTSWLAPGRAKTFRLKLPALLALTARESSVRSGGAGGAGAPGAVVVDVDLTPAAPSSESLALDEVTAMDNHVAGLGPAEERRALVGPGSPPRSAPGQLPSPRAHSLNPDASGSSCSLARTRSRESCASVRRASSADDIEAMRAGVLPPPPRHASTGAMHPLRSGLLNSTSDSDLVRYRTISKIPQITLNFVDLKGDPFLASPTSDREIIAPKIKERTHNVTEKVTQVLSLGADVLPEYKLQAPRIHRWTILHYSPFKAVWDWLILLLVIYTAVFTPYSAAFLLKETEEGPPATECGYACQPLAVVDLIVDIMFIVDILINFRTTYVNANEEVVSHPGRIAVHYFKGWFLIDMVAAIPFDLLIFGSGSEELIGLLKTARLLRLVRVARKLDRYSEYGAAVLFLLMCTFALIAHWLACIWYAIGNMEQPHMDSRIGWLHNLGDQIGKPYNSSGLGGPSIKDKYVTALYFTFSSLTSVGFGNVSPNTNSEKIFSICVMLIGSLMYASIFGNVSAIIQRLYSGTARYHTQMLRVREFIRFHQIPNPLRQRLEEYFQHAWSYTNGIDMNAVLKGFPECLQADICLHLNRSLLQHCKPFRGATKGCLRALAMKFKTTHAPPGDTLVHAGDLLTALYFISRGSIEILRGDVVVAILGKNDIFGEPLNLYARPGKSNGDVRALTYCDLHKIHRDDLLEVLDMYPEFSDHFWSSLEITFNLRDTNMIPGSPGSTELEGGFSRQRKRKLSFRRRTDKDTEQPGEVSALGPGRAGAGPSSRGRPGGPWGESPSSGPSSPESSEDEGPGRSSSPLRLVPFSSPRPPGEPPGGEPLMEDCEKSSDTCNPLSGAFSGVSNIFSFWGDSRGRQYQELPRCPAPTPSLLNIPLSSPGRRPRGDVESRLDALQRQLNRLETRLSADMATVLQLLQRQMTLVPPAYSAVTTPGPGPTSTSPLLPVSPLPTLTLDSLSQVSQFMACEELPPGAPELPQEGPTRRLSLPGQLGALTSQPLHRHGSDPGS

Row | Ki [1] [nM] | Ki (Histamine H1 receptor) [nM] | Ki [2] [nM] | Ki [3] [nM] | Ki [5] [nM] | Ki (D(2) dopamine receptor) [nM] | SMILES | IC50 [4] [nM]
1 | 16.9 | 2850 | 998 | 0.79 | 967.3 | 8.7 | O=[N+]([O-])c1ccc(S(=O)(=O)N2CCC(CN3CCC(c4noc5cc(F)ccc45)CC3)CC2)cc1 | 3810
2 | 21.9 | 43.6 | 137 | 15.7 | 568.3 | 32.6 | O=S(=O)(c1ccc(C(F)(F)F)cc1)N1CCC(CN2CCC(c3noc4cc(F)ccc34)CC2)CC1 | 1390

Source: ChEMBL document CHEMBL3739370, “Synthesis and evaluation of amide, sulfonamide and urea benzisoxazole derivatives as potential atypical antipsychotics” (Medchemcomm, 2015)
